# From PubChem BioAssay AID849 (SRMLSC, 2007)
# Active and inactive are the calls of the source. No rule for the calls is given here.
# System: Saccharomyces cerevisiae lifespan shortening, growth inhibition
# Assay: Saccharomyces cerevisiae growth inhibition potency – dose response (AID 849);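 also: yeast growth read as optical density after two days at 30 degrees C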
row,SMILES,IC50
1,CCOC(=O)c1sc(=S)n(-c2cc(F)ccc2F)c1N,> 100 µM (inactive)
2,CC(NC(=O)/C(C#N)=C/c1ccc(Cl)c([N+](=O)[O-])c1)c1ccccc1 (stereo unspecified),> 100 µM (inactive)
3,C/C(=N\Nc1ccc(Cl)cc1)c1ccccn1,43.5 µM
4,Oc1c(I)cc(Cl)c2cccnc12,23 µM
5,Cc1ccc2nc(-c3ccc(NS(C)(=O)=O)cc3)cc(-c3ccccc3)c2c1,43.2 µM
6,O=C(O)CSc1nc(-c2ccc(Cl)cc2)nc2c1oc1ccccc12,38 µM
7,N/C(Cc1ccc(Cl)cc1)=N\OC(=O)C1CCCCC1,11.5 µM
8,O=C1C(=O)c2c(C(=O)c3ccccc3)coc2-c2ccccc21,13.4 µM
9,CCCCCCCCCCCCCCCC[n+]1cccc(C(=O)N(CC)CC)c1,3.69 µM
10,CCN1CCN(c2ncnc3c2sc(=S)n3-c2ccccc2)CC1,> 100 µM (inactive)
11,CC(Sc1cccc[n+]1[O-])C(=O)Nc1cccc(S(=O)(=O)N2CCOCC2)c1 (stereo unspecified),6.11 µM
12,Cc1cccc(NC(=O)CC2SC(=O)N(c3ccccc3)C2=O)c1 (stereo unspecified),> 100 µM (inactive)
13,c1ccc2nc3c(nc2c1)[nH]c1ccccc13,25 µM
14,COc1cc(OC)c(C2CC(=O)N3CN(C)CSC3=C2C#N)cc1OC (stereo unspecified),> 100 µM (inactive)
15,Cn1cccc1Cc1nnc(SCC(=O)Nc2nccs2)n1CCc1ccccc1,> 100 µM (inactive)
16,CCOC(=O)c1cnc(-n2nc(C)cc2C)nc1NNc1cc(C)nc(-c2ccccc2)n1,> 100 µM (inactive)
17,Cc1cc(O)c(/C=N/Nc2ccccc2Cl)c(=O)o1,29.7 µM
18,CCCc1cc(-c2n[nH]c(=S)n2C(C)c2ccccc2)cs1 (stereo unspecified),> 100 µM (inactive)
19,O=C1NC(c2ccccn2)Nc2sc3c(c21)CCC3 (stereo unspecified),> 100 µM (inactive)
20,Cc1ccc(Nc2cc(C)nn2-c2nc(C)cc(=O)[nH]2)cc1,1.18 µM
21,Cc1cccc(/C=C/C(=O)c2cc(Br)ccc(=O)c2O)c1,8.97 µM
22,c1ccc2c(c1)nnn1c3ccccc3nc21,> 100 µM (inactive)
23,Cc1cc2sc(C(=O)O)c(C)c2s1,41.6 µM
24,CC1(C)C(C=C(Cl)Cl)C1C(=O)Nc1ccc([N+](=O)[O-])cc1 (stereo unspecified),51.3 µM

row,SMILES,IC50
1,Nc1nc2sc3c(c2c(=O)s1)CCCC3,> 100 µM (inactive)
2,Cc1nc2c(c(C)c1C#N)C(=O)c1ccccc1-2,38.8 µM
3,O=c1cc(C(F)(F)F)[nH]c2c(C(F)(F)F)cccc12,9.03 µM
4,CC(C)(C)c1ccc(C(=O)NC(=S)NNC(=O)c2cccs2)cc1,42.2 µM
5,CC(Oc1ccc2ccccc2c1)C(=O)NNC(=S)NC(=O)c1ccco1 (stereo unspecified),17.7 µM
6,Cc1ccc(-c2nnc3ccc(SC(C)C(=O)O)nn23)cc1 (stereo unspecified),> 100 µM (inactive)
7,Nc1ccc(SC(F)(F)F)cc1C(=O)c1ccccc1,> 100 µM (inactive)
8,O=C(O)c1cc2c(s1)-c1ccccc1CC2,30.5 µM
9,Cc1cccc(C(=O)NC(=S)NNC(=O)c2cccs2)c1,30.6 µM
10,CN1CCN(C2=Cc3cc(Cl)ccc3Sc3cc(F)ccc32)CC1,15.2 µM
11,COc1ccc(OC)c(C2CC(=O)N3CN(c4cccc(Cl)c4)CSC3=C2C#N)c1 (stereo unspecified),> 100 µM (inactive)
12,Cn1c(C(=O)N2CCC(C(=O)N3CCN(Cc4ccc5c(c4)OCO5)CC3)CC2)cc2sccc21,> 100 µM (inactive)
13,CCCCCCOC(=O)Sc1nc2ccccc2o1,20.2 µM
14,COc1cc(OC)nc(NC(=O)CS(=O)(=O)c2ccccc2)n1,33.4 µM
15,Cc1ccc(/C=C/C(=O)c2ccccc(=O)c2O)cc1C,5.31 µM
16,CCCCn1c(=O)c(C(=O)NCc2ccncc2)c(O)c2ccccc21,> 100 µM (inactive)
17,O=C(COc1ccc(Cl)cc1)NC1=NN(c2ccccc2)C(=O)C1,> 100 µM (inactive)
18,Cc1ccc(/C(N)=N/OC(=O)c2ccc(C)cc2Cl)cc1,14.8 µM
19,O=C(O)c1cc2c(ccc3ccccc32)oc1=O,11.9 µM
20,CN1C(=O)C(O)(CC(=O)c2ccccc2O)c2cc(Br)ccc21 (stereo unspecified),> 100 µM (inactive)
21,COc1ccc2c(c1)[nH]c1c(Cl)ncnc12,29.9 µM
22,Cc1nn(-c2ccccc2)c2sc(-c3n[nH]c(=S)o3)cc12,> 100 µM (inactive)
23,O=[N+]([O-])c1cc(Cc2ccccc2)cc(C=Nc2ccc(N3CCOCC3)cc2)c1O,> 100 µM (inactive)
24,CNC(=S)N/N=C(\C)c1ccc(N2CCOCC2)cc1,> 100 µM (inactive)

row,SMILES,IC50
1,O=C1c2ccccc2C(=O)N1Cc1ccco1,> 100 µM (inactive)
2,OC(CNCCC1C=Nc2ccccc21)Cn1c2ccc(Cl)cc2c2cc(Cl)ccc21 (stereo unspecified),20 µM
3,Cc1ccc(-n2c(C)cc(C(=O)COC(=O)c3ccc[nH]c3=O)c2C)cc1C,3.98 µM
4,Cc1nc2c(F)c(F)c(C(F)(F)F)c(F)c2[nH]1,> 100 µM (inactive)
5,Cc1c(C(=O)O)cccc1-c1ccc(/C=N/Nc2ccc(Br)cc2)o1,> 100 µM (inactive)
6,Cc1ccc(N/N=C/c2cccnc2)cc1,39.6 µM
7,CNc1nnc(-c2cc3cc(Cl)ccc3oc2=O)s1,> 100 µM (inactive)
8,Oc1cccc2ccc(Nc3ccccn3)nc12,14 µM
9,N/C(=N\OC(=O)c1ccc(Cl)cc1Cl)c1ccccc1,> 100 µM (inactive)
10,C=CCn1c2ccccc2c2nnc(SCN3C(=O)c4ccccc4C3=O)nc21,> 100 µM (inactive)
11,CCCC1COC(Cn2cncn2)(c2ccc(C)cc2)O1 (stereo unspecified),3.94 µM
12,CCOC(=O)c1cc([N+](=O)[O-])c([N+](=O)[O-])cc1NC(C)=O,< 0.098 µM
13,O=C(CN1CCN(c2ncc(C(F)(F)F)cc2Cl)CC1)NCCNc1ncc(C(F)(F)F)cc1Cl,42.5 µM
14,O=[N+]([O-])c1ccc(N/N=C/c2ccc[nH]2)cc1,> 100 µM (inactive)
15,CCCCCCCOC(=O)C[N+](C)(C)CCOC1CC2CCC1(C)C2(C)C (stereo unspecified),28.4 µM
16,Nc1nsc2ccccc12,24.3 µM
17,Clc1ccc2[nH]c3c(c2c1)CCc1cn[nH]c1-3,12.5 µM
18,O=C(O)c1ccc(N(c2ccccc2)c2ccccc2)cc1,> 100 µM (inactive)
19,Cn1c2ccccc2c2cc(C(=O)O)ccc21,25.4 µM
20,Cc1ccc(NC(=O)CSC2=C(C#N)C(c3ccc4c(c3)OCO4)C3=C(CCCC3=O)N2)c(C)c1 (stereo unspecified),> 100 µM (inactive)
21,CCOCC(=O)Nc1nc2c(s1)C(=O)CC(C)(C)C2,> 100 µM (inactive)
22,Cc1cc(C)c2c(N=NN3CCOCC3)[nH]nc2n1,19.9 µM
23,Cn1c(N2CCOCC2)c(/C=N/OC(=O)c2ccc(F)cc2)c2ccccc21,42.2 µM
24,C=CCC1c2cccc(C(=O)O)c2C(=O)N1c1cccc(C)c1 (stereo unspecified),2.79 µM

row,SMILES,IC50
1,Cc1ccc(/C=C/C(=O)c2ccccc(=O)c2O)c(C)c1,4.42 µM
2,O=C(OCn1ncc(Cl)c(Cl)c1=O)c1ccc(F)cc1,> 100 µM (inactive)
3,Cc1cc(O)c(/C=N/Nc2cccc(Cl)c2)c(=O)o1,40.3 µM
4,O=C(O)c1cc2c(s1)-c1ccccc1OC2,42.2 µM
5,Cc1cccc(C(=O)O/N=C/c2c(N3CCOCC3)n(C)c3ccccc23)c1,35.3 µM
6,CCSc1nc(N)nc(-c2cccs2)c1C#N,24.8 µM
7,COCCN1CSC(=S)N(Cc2ccco2)C1,20.1 µM
8,COc1cc(-c2nc3ccc4ccccc4c3c3c2CCC3)ccc1O,> 100 µM (inactive)
9,CCOC(=O)CNC(=O)CSc1nnc(-c2ccco2)n1Cc1ccco1,> 100 µM (inactive)
10,Cc1ccc2c(c1)c1c(n2C)-c2[nH]ncc2CC1,35.3 µM
11,Cn1c(SCC(=O)N/N=C/c2ccc([N+](=O)[O-])s2)nnc1-c1ccc(Cl)cc1,25.3 µM
12,C/C(=N\Nc1nc2c(s1)CCCC2)c1ccccc1,31.9 µM
13,Nc1nonc1C(=O)NCCN=Cc1cc(Cc2ccccc2)cc(Br)c1O,> 100 µM (inactive)
14,Oc1ccc(-c2csc(-c3ccccc3)n2)cc1O,27.5 µM
15,O=C(c1ccc(Cl)cc1)c1c[nH]c(C(=O)C(Cl)(Cl)Cl)c1,37.8 µM
16,CCn1c(=O)c(C(=O)Nc2nc3ccccc3[nH]2)c(O)c2ccccc21,> 100 µM (inactive)
17,c1ccc(-c2nc3nonc3nc2-c2ccccc2)cc1,> 100 µM (inactive)
18,CCOC(=O)c1c(/N=C/c2cc([N+](=O)[O-])ccc2O)sc(C)c1C,47.1 µM
19,C=CCN1C(C(=O)c2ccccc2)=C(OC(=O)COc2ccccc2)c2ccccc2S1(=O)=O,26.9 µM
20,CCc1cccc2c(C(=O)COC(=O)c3ccc([N+](=O)[O-])s3)c[nH]c12,29.2 µM
21,COc1ccccc1OCCCc1c(C)n[nH]c1C,8.78 µM
22,CC(C)Sc1nc(N)nc(-c2cccs2)c1C#N,> 100 µM (inactive)
23,Cc1ccc(S(=O)(=O)Nc2ccc(SC(F)F)cc2)c(C)c1,> 100 µM (inactive)
24,COc1cc(CNCCN2CCOCC2)ccc1OCc1cccc(Cl)c1,> 100 µM (inactive)

row,SMILES,IC50
1,CC(C)N=c1scc(-c2cccs2)n1/N=C/c1ccc(O)c(O)c1O,> 100 µM (inactive)
2,O=[N+]([O-])c1cc(CN2CCCC2)c2cccnc2c1O,> 100 µM (inactive)
3,O=C(O)c1ccccc1Nc1ccc([N+](=O)[O-])cc1,10.8 µM
4,CC(C)c1ccc2c(c1)C1(NN=C(c3ccccc3)S1)C(=O)N2 (stereo unspecified),26.3 µM
5,Cc1nc2ccc(C(=O)O)cc2[nH]1,> 100 µM (inactive)
6,CS(=O)(=O)N1CCN(C(=O)c2ccccc2F)CC1,> 100 µM (inactive)
7,O=S(=O)(Cc1ccccc1)NCc1cccnc1,> 100 µM (inactive)
8,O=C1c2ccccc2NC(c2ccc(-c3ccc(Br)cc3)o2)N1O (stereo unspecified),25 µM
9,O=C1CCCC/C1=N\Nc1ccc(OCc2ccccc2)cc1,13.3 µM
10,C=CCc1c(C)c(C#N)c2nc3ccccc3n2c1NCCN(C)C,44.5 µM
11,Cn1c(=O)c2nc(-c3ccccc3)oc2c2ccccc21,> 100 µM (inactive)
12,O/N=C/c1ccc(OCc2ccccc2)c(Br)c1,> 100 µM (inactive)
13,NC(=O)c1ccc(N=Cc2ccc([N+](=O)[O-])s2)cc1,7.91 µM
14,COc1ccc(-c2cc(-c3ccccc3O)[nH]n2)cc1,> 100 µM (inactive)
15,COC(=O)Cn1c2ccc(C)cc2c2nc(C)sc21,> 100 µM (inactive)
16,COc1ccc(NCc2ccc([N+](=O)[O-])s2)c(OC)c1,41.1 µM
17,c1ccc(-c2nnc(-c3ccccn3)nc2NC2CCCCC2)cc1,12.5 µM
18,O=C1c2ccccc2C(=O)c2c1cccc2N1CCOCC1,46.6 µM
19,Cc1csc(NC(=O)Cc2coc3cc(C)c(C(C)C)cc23)n1,> 100 µM (inactive)
20,O=C(/C=C/N1CCOCC1)c1ccc(-c2ccccc2)cc1,11.5 µM
